Laboratory results as given in ChEMBL document CHEMBL4043281, “Development of a peptide-based inducer of protein degradation targeting NOTCH1” (Bioorg Med Chem Lett, 2017).
Active and inactive are the calls of the source. The calls are words filed in the database; no cut-off is given here. Positions of bridges follow the written chain, without caps; N, C: chain ends. Non-standard residues stand in square brackets, D forms with d. Residues, ends and D or L forms follow the SMILES beside them. Dip = N[C@H](C(=O)O)C(c1ccccc1)c1ccccc1; Chg = N[C@H](C(=O)O)C1CCCCC1; S5 = C=CCCC[C@](C)(N)C(=O)O; NMeA = CN[C@@H](C)C(=O)O; AEEA = NCCOCCOCC(=O)O; βAla = NCCC(=O)O

Columns and labels:
[1] = species: Homo sapiens; experiment: Induction of IAP-mediated NOTCH1 protein degradation in human MOLT4 cells assessed as ratio of NOTCH1 to lamin protein level at 20 uM after 6 hrs by Western blot analysis (reference value: 100%); assay type: cell-based
[2] = system: MOLT-4; experiment: Induction of CSL protein degradation in human MOLT4 cells assessed as ratio of CSL to lamin protein level at 50 uM after 6 hrs by Western blot analysis (reference value: 100%); assay type: functional
[3] = system: MOLT-4; experiment: Induction of CSL protein degradation in human MOLT4 cells assessed as ratio of CSL to lamin protein level at 20 uM after 6 hrs by Western blot analysis (reference value: 100%); assay type: functional
[4] = species: Homo sapiens; experiment: Induction of IAP-mediated NOTCH1 protein degradation in human MOLT4 cells assessed as ratio of NOTCH1 to lamin protein level at 100 uM after 6 hrs by Western blot analysis (reference value: 100%); assay type: cell-based
[5] = species: Homo sapiens; experiment: Induction of IAP-mediated NOTCH1 protein degradation in human MOLT4 cells assessed as ratio of NOTCH1 to lamin protein level at 50 uM after 6 hrs by Western blot analysis (reference value: 100%); assay type: cell-based
[6] = system: MOLT-4; experiment: Induction of CSL protein degradation in human MOLT4 cells assessed as ratio of CSL to lamin protein level at 100 uM after 6 hrs by Western blot analysis (reference value: 100%); assay type: functional
[7] = system: MOLT-4; experiment: Cytotoxicity against human MOLT4 cells at >100 uM; assay type: cell-based
[8] = species: Homo sapiens; experiment: Induction of IAP-mediated NOTCH1 protein degradation in human MOLT4 cells assessed as ratio of NOTCH1 to lamin protein level at 80 uM after 6 hrs by Western blot analysis (reference value: 100%); assay type: cell-based
[9] = species: Homo sapiens; experiment: Antagonist activity IAP in human MOLT4 cells assessed as reduction in cIAP1 protein level at 50 to 80 uM after 6 hrs by Western blot analysis; assay type: cell-based
[10] = system: MOLT-4; experiment: Induction of CSL protein degradation in human MOLT4 cells assessed as ratio of CSL to lamin protein level at 60 uM after 6 hrs by Western blot analysis (reference value: 100%); assay type: functional
[11] = system: MOLT-4; experiment: Induction of CSL protein degradation in human MOLT4 cells assessed as ratio of CSL to lamin protein level at 80 uM after 6 hrs by Western blot analysis (reference value: 100%); assay type: functional
[12] = species: Homo sapiens; experiment: Induction of IAP-mediated NOTCH1 protein degradation in human MOLT4 cells assessed as ratio of NOTCH1 to lamin protein level at 60 uM after 6 hrs by Western blot analysis (reference value: 100%); assay type: cell-based
[13] = system: MOLT-4; experiment: Induction of CSL protein degradation in human MOLT4 cells assessed as ratio of CSL to lamin protein level at 70 uM after 6 hrs by Western blot analysis (reference value: 100%); assay type: functional
[14] = species: Homo sapiens; experiment: Induction of IAP-mediated NOTCH1 protein degradation in human MOLT4 cells assessed as ratio of NOTCH1 to lamin protein level at 70 uM after 6 hrs by Western blot analysis (reference value: 100%); assay type: cell-based

Structure (SMILES) | Ratio [1] [%] | Ratio [2] | Ratio [3] [%] | Ratio [4] [%] | Ratio [5] [%] | Ratio [6] [%] | Activity [7] | Ratio [8] [%] | inhibition [9] | Ratio [10] [%] | Ratio [11] [%] | Ratio [12] [%] | Ratio [13] [%] | Ratio [14] [%]
CC[C@H](C)[C@H](NC(=O)[C@H](CCCNC(=N)N)NC(=O)[C@H](CCCNC(=N)N)NC(=O)[C@H](CCCNC(=N)N)NC(=O)[C@H](CC(C)C)NC(=O)[C@H](CCCNC(=N)N)NC(=O)[C@H](CCC(=O)O)NC(=O)CCNC(=O)COCCOCCNC(=O)[C@@H](NC(=O)[C@@H]1CCCN1C(=O)[C@@H](NC(=O)[C@H](C)NC)C1CCCCC1)C(c1ccccc1)c1ccccc1)C(=O)N[C@@H](CCC(=O)O)C(=O)N[C@@H](CC(C)C)C(=O)N[C@@H](CS)C(=O)N[C@@H](CCCNC(=N)N)C(=O)N[C@@H](CCCNC(=N)N)C(=O)N[C@@H](Cc1cnc[nH]1)C(=O)N[C@@H](Cc1cnc[nH]1)C(=O)N[C@@H](CO)C(=O)N[C@H](C(=O)O)[C@@H](C)O (H-[NMeA][Chg]P[Dip][AEEA][βAla]ERLRRRIELCRRHHST-OH) | 116 | 108% | 115 | 85 | 100 | 99 | Toxic | – | – | – | – | – | – | –
CC[C@H](C)[C@H](NC(=O)[C@H](CCCNC(=N)N)NC(=O)[C@H](CCCNC(=N)N)NC(=O)[C@H](CCCNC(=N)N)NC(=O)[C@H](CC(C)C)NC(=O)[C@H](CCCNC(=N)N)NC(=O)[C@H](CCC(=O)O)NC(=O)CCNC(=O)COCCOCCNC(=O)[C@@H](NC(=O)[C@@H]1CCCN1C(=O)[C@@H](NC(=O)[C@H](C)NC)C1CCCCC1)C(c1ccccc1)c1ccccc1)C(=O)N[C@@]1(C)CCC/C=C\CCC[C@@](C)(C(=O)N[C@@H](CCCNC(=N)N)C(=O)N[C@@H](Cc2cnc[nH]2)C(=O)N[C@@H](Cc2cnc[nH]2)C(=O)N[C@@H](CO)C(=O)N[C@H](C(=O)O)[C@@H](C)O)NC(=O)[C@H](CS)NC(=O)[C@H](CC(C)C)NC1=O (H-[NMeA][Chg]P[Dip][AEEA][βAla]ERLRRRI[S5]LC[S5]RHHST-OH; staple (Z) 14-17) | 105 | 105 - 108% | 105 | 74 | 87 to 99 | 115 | Toxic | 77 | Active | 104 | 102 | 106 | 115 | 99
